Some test systems named below: K-562 leukemia; KM12 colon; NCI-H522 lung; ACHN renal; BT-549 breast; MDA-N; A549 NSCLC; SNB-19 CNS; HCC-2998 colon.
Assay in all cases: NCI anticancer screen, dose series, 48 h

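Method: 48-hour compound exposure of cells in 96-well plates, five concentrations, linear interpolation of endpoints. At the GI50, growth is halved. TGI: total growth inhibition.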

For the molecule `Cc1c2cccc-2ccc2c1[nH]c1ccccc12`, the TGI in the assay on K-562 leukemia is 11 µM; in the assay on KM12 colon it was 5.57 µM; in the assay with NCI-H522 lung, 3.9 µM; in the assay with ACHN renal, 3.2 µM; in the assay on BT-549 breast, 9.56 µM; in the assay on MDA-N, 4.15 µM. Moreover, the TGI in the assay on A549 NSCLC was found to be 5.65 µM; with SNB-19 CNS, 10.3 µM.
Regarding `CC1=C2C(=O)c3ccccc3C(=O)[C@H]2C[C@@H](N2CCCCCC2=O)O1`, the TGI came out at 53.4 µM in the assay with K-562 leukemia; 30.7 µM in the assay with KM12 colon; 38.9 µM in the assay on NCI-H522 lung; 51.7 µM in the assay with ACHN renal; 29.4 µM in the assay on MDA-N; 31.4 µM in the assay with HCC-2998 colon. Besides, the TGI with A549 NSCLC worked out at 39.7 µM; in the assay on SNB-19 CNS, 39.2 µM.
In the case of `O=S1(=O)OCCOS(=O)(=O)C1Cc1nc2ccccc2[nH]1`, the TGI in the assay with K-562 leukemia, with KM12 colon, in the assay on ACHN renal, with MDA-N, in the assay on HCC-2998 colon and in the assay on A549 NSCLC was over 100 µM throughout. The molecule further had a TGI in the assay on SNB-19 CNS of over 100 µM.
On to `N#CCCC1(CCC#N)CCCCCCC(CCC#N)(CCC#N)C(O)C1O` (configuration not stated), for which the TGI in the assay with K-562 leukemia, in the assay on KM12 colon, with NCI-H522 lung, in the assay with ACHN renal, with MDA-N and with HCC-2998 colon was over 100 µM each time. Besides, the TGI in the assay on A549 NSCLC and in the assay on SNB-19 CNS was over 100 µM each time.
As to `O=S(=O)(O)C1CCC(O)C2[N-]CCCC21.O=S(=O)(O)C1CCC(O)C2[N-]CCCC21.[Zn+2]` (configuration not stated), the TGI in the assay on K-562 leukemia, in the assay with KM12 colon, in the assay with NCI-H522 lung, in the assay on ACHN renal, with BT-549 breast and in the assay with HCC-2998 colon was over 100 µM in each case. Besides, the TGI in the assay with A549 NSCLC and in the assay with SNB-19 CNS was over 100 µM throughout.
For the molecule `COc1ccc(/C=C2\CCC(CNc3ccc(Br)cc3)C2=O)cc1` (configuration not stated), the TGI with K-562 leukemia, with KM12 colon, in the assay with ACHN renal, in the assay with BT-549 breast, in the assay with HCC-2998 colon and in the assay on A549 NSCLC was over 100 µM in each case. This molecule also registered a TGI in the assay with SNB-19 CNS of over 100 µM.
On to `COC1=CC(=O)C2=C(C1=O)[C@H]1CC[C@]3(C)[C@@H](OC(C)=O)CC[C@H]3[C@@H]1CC2`, for which the TGI in the assay on K-562 leukemia, in the assay on KM12 colon, in the assay on NCI-H522 lung, in the assay with ACHN renal, with BT-549 breast and with MDA-N was over 100 µM each time. The TGI in the assay on A549 NSCLC and in the assay on SNB-19 CNS was over 100 µM in each case.
`c1ccc([P+](c2ccccc2)(c2ccccc2)c2ccc([P+](c3ccccc3)(c3ccccc3)c3ccccc3)cc2)cc1`: the TGI with K-562 leukemia, in the assay on KM12 colon, in the assay on NCI-H522 lung, in the assay on ACHN renal, with BT-549 breast and in the assay with MDA-N was over 100 µM each time. For the same molecule, the TGI in the assay with A549 NSCLC and with SNB-19 CNS was over 100 µM throughout.
On to `CC(=O)CC1(C)OC(N)=C(C#N)C1(C#N)C#N` (configuration not stated), for which the TGI with KM12 colon, in the assay on NCI-H522 lung, in the assay on ACHN renal, in the assay with MDA-N, in the assay on HCC-2998 colon and in the assay with A549 NSCLC was over 100 µM throughout. The same molecule yielded a TGI in the assay with SNB-19 CNS of over 100 µM.
In the case of `COc1ccc(C=Nc2ccc(-c3nc4ccccc4[nH]3)cc2)cc1OC`, the TGI in the assay on K-562 leukemia, in the assay on KM12 colon, in the assay with NCI-H522 lung, in the assay on ACHN renal, in the assay with BT-549 breast and in the assay on MDA-N was over 100 µM in each case. The TGI with A549 NSCLC and in the assay on SNB-19 CNS was over 100 µM each time.
For `O=CNNC(=O)Nc1ccc(Cl)cc1`, the TGI with K-562 leukemia, in the assay on KM12 colon, in the assay on ACHN renal, in the assay on HCC-2998 colon, in the assay with A549 NSCLC and in the assay on SNB-19 CNS was over 100 µM throughout.
With `COc1cc(-n2cc(-c3cc(O)c(C/C=C(\C)CCC=C(C)C)c(O)c3)nn2)cc2c1O[C@]1(C)CC[C@@H](O)C(C)(C)[C@H]1C2`, the GI50 in the assay on KM12 colon is 2.47 µM; with NCI-H522 lung, 1.19 µM; in the assay with ACHN renal, 1.79 µM; with BT-549 breast it was 0.974 µM; with HCC-2998 colon, 2.45 µM; in the assay with A549 NSCLC it was 1.12 µM. For the same molecule, the GI50 in the assay with SNB-19 CNS is 1.89 µM. Also, the TGI in the assay with KM12 colon came to 31.9 µM; with NCI-H522 lung, 4.35 µM; in the assay with ACHN renal, 26.6 µM; in the assay on BT-549 breast, 20.5 µM; in the assay with HCC-2998 colon it was 19 µM; in the assay with A549 NSCLC it was 20.7 µM. In addition, the TGI in the assay on SNB-19 CNS turned out to be 40.3 µM.
For the molecule `COc1ccc(C2=C(OC(=O)N(C)C)c3cccn3-c3cc(Cl)ccc3S2)cc1`, the TGI in the assay with K-562 leukemia, in the assay on KM12 colon, in the assay with MDA-N, in the assay with HCC-2998 colon and with A549 NSCLC was over 10 µM throughout.
In the case of `COc1cccc(CN(C(=O)/C=C\Sc2ccccc2)C(C)(C)C)c1`, the TGI in the assay with KM12 colon, in the assay on ACHN renal, in the assay on BT-549 breast, in the assay on MDA-N, with HCC-2998 colon and in the assay on A549 NSCLC was over 100 µM in each case. Further, the TGI in the assay on SNB-19 CNS was over 100 µM.
`CCOC(=O)CCCn1cc(C(=O)OC)nn1`: the TGI in the assay on KM12 colon, in the assay with ACHN renal, in the assay with BT-549 breast, in the assay on MDA-N, in the assay on HCC-2998 colon and in the assay with A549 NSCLC was over 100 µM each time. Further, in the assay with SNB-19 CNS, the TGI was over 100 µM.
Consider `CCCCCCOc1ccc(C(=N)N(CCCC)CCCC)c2ccccc12`, for which the GI50 was 1.61 µM with KM12 colon, 0.61 µM in the assay on NCI-H522 lung, 1.59 µM in the assay with HCC-2998 colon and 1.76 µM with A549 NSCLC. Further, the TGI is 3.09 µM in the assay with KM12 colon, 2.07 µM in the assay with NCI-H522 lung, 3.03 µM in the assay on HCC-2998 colon and 3.31 µM with A549 NSCLC.
For the molecule `COC(=O)C(NC(=O)CSc1nnc(COc2ccc(Cl)cc2)n1-c1ccccc1)C(C)C` (configuration not stated), the TGI in the assay on K-562 leukemia was over 100 µM; in the assay on KM12 colon, 38.5 µM; in the assay with NCI-H522 lung, 24.7 µM; with ACHN renal, over 100 µM; with MDA-N, 32.1 µM; in the assay with HCC-2998 colon, 38.7 µM. The figures for the TGI in the assay with A549 NSCLC and in the assay with SNB-19 CNS were over 100 µM and 73 µM, respectively.
In the case of `CNc1ccc(S(=O)Nc2ccccc2)cc1` (configuration not stated), the TGI is over 100 µM in the assay on K-562 leukemia; over 100 µM in the assay with KM12 colon; 96.7 µM in the assay with NCI-H522 lung; over 100 µM in the assay on ACHN renal; over 100 µM with MDA-N; over 100 µM with HCC-2998 colon. The TGI with A549 NSCLC and with SNB-19 CNS was over 100 µM throughout.
For `CC(C)=CCC[C@@H](C)c1c2[nH]c3ccccc3sc-2c(C)c(=O)c1=O`, the TGI in the assay on K-562 leukemia is over 75 µM; with KM12 colon, over 35.2 µM; in the assay with NCI-H522 lung it was 8.6 µM; with ACHN renal it was 10.8 µM; with BT-549 breast it was over 75 µM; in the assay with HCC-2998 colon it was over 36.8 µM. The TGI with A549 NSCLC was 35.6 µM; with SNB-19 CNS, over 75 µM.
For the molecule `CCOC(=O)c1nc2ccccc2nc1NCc1ccc(Cl)cc1Cl`, the TGI with K-562 leukemia, with KM12 colon, in the assay on NCI-H522 lung, in the assay with ACHN renal, in the assay on BT-549 breast and with MDA-N was over 100 µM in each case. For the same molecule, the TGI in the assay on A549 NSCLC and in the assay with SNB-19 CNS was over 100 µM in each case.
With `CC(=O)c1ccc(NC(=O)CSc2nc(C)nc3c2sc(=S)n3-c2ccccc2)cc1`, the TGI with K-562 leukemia was over 10 µM; in the assay with KM12 colon, over 3.16 µM; in the assay with NCI-H522 lung it was over 3.16 µM; in the assay with ACHN renal it was over 3.16 µM; in the assay on MDA-N it was over 3.16 µM; with HCC-2998 colon, over 3.16 µM. The TGI in the assay with A549 NSCLC and in the assay on SNB-19 CNS was over 3.16 µM in each case.
On to `Nc1ncc(/C=N/O)c(NCC2(CO)CC(CCc3ccccc3)C2)n1` (configuration not stated), for which the TGI in the assay on K-562 leukemia amounted to 31.7 µM; in the assay with KM12 colon, 31.6 µM; with NCI-H522 lung, 20.9 µM; in the assay on HCC-2998 colon, 30.4 µM; with A549 NSCLC it was 25.6 µM.
Regarding `CC1(C)[C@@H]2CC[C@@]1(C)[C@H](O)[C@@H]2SCc1ccccc1`, the TGI is over 100 µM with K-562 leukemia; 36.4 µM in the assay on KM12 colon; 29.3 µM in the assay with NCI-H522 lung; 24 µM in the assay on ACHN renal; 43.4 µM in the assay with MDA-N; 36.6 µM in the assay on HCC-2998 colon. The TGI came out at 48.6 µM in the assay with A549 NSCLC and 31.7 µM in the assay with SNB-19 CNS.
`C=C[C@@](C)(/C=C/c1ccc(O)cc1)CCC=C(C)C`: the TGI in the assay on K-562 leukemia stood at 29.9 µM; in the assay on NCI-H522 lung, 30.9 µM; in the assay on ACHN renal it was 22.4 µM; in the assay on MDA-N, 31 µM; with HCC-2998 colon it was 35.5 µM; with A549 NSCLC, 35.1 µM. In the assay on SNB-19 CNS, this molecule showed a TGI of 34.7 µM.
As to `O=C(CSc1nc2ccc(I)cc2c(=O)n1Cc1ccccc1)NN1C(=O)CCC1=O`, the TGI with K-562 leukemia is over 100 µM; with KM12 colon, over 100 µM; in the assay with NCI-H522 lung it was 47.1 µM; in the assay with ACHN renal, 34.6 µM; in the assay on MDA-N, over 100 µM; with HCC-2998 colon it was over 100 µM. Moreover, the TGI in the assay on A549 NSCLC and in the assay with SNB-19 CNS was over 100 µM each time.
